In publication PMC7366380, “Discovery of a Potent and Selective Covalent Inhibitor and Activity-Based Probe for the Deubiquitylating Enzyme UCHL1, with Antifibrotic Activity” (Journal of the American Chemical Society, 2020):
Where “and” joins values, the source holds several entries; their conditions need not be identical. Equal values may be shown once.

Columns and labels:
Test in all cases: In-cell proteome-wide competitive ABPP, HEK293: other DUBs and proteins
[1] = molecular target: DUBs and other proteins in HEK293 cells (Homo sapiens, UniProt Q7L5N1); conditions: for Log2 reporter intensity values, COPS6: 20 nM ABP 2 (10 min), no competitor, TMT replicates
DUBs and other proteins in HEK293 cells (Homo sapiens, UniProt Q7L5N1), sequence (Q7L5N1 whole entry): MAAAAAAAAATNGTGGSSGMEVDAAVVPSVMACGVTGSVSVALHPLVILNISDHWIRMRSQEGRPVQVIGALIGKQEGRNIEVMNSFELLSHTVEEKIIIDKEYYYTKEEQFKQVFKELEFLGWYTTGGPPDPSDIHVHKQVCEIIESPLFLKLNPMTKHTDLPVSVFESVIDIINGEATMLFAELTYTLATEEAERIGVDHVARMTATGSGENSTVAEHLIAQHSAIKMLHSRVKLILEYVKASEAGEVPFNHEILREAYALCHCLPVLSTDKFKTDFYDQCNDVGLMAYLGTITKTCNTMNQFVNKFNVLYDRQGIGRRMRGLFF

[2] = molecular target: T1, DUBs and other proteins in HEK293 cells (Homo sapiens, UniProt Q9Y4E8); conditions: replicates A-C
T1 sequence (Q9Y4E8 1-981): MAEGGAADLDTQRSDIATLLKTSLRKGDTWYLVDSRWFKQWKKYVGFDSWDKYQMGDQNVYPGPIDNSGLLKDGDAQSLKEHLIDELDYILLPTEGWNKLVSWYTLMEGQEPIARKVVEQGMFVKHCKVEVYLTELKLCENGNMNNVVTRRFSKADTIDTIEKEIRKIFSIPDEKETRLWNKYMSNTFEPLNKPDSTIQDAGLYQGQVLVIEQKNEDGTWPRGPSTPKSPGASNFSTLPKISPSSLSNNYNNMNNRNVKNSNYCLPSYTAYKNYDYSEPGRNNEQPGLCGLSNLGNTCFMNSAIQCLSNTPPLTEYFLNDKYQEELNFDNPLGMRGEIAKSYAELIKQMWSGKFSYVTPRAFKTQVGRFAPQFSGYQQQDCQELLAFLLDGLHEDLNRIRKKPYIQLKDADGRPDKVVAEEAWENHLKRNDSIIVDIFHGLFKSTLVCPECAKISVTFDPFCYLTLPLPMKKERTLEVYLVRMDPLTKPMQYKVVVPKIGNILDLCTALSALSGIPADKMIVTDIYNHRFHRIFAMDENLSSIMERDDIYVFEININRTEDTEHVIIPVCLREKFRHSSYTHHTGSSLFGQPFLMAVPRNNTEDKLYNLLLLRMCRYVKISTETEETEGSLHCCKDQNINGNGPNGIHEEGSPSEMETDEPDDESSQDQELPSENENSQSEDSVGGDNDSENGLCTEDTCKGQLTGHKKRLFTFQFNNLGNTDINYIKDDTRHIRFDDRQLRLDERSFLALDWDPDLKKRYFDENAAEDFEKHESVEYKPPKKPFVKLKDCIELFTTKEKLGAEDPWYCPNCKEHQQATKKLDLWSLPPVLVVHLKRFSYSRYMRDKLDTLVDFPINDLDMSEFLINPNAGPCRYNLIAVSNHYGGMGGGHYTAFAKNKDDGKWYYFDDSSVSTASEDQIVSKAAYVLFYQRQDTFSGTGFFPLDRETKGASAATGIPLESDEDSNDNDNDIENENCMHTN

[3] = molecular target: T2, DUBs and other proteins in HEK293 cells (Homo sapiens, UniProt P51665); conditions: replicates A-C
T2 sequence (P51665 1-324): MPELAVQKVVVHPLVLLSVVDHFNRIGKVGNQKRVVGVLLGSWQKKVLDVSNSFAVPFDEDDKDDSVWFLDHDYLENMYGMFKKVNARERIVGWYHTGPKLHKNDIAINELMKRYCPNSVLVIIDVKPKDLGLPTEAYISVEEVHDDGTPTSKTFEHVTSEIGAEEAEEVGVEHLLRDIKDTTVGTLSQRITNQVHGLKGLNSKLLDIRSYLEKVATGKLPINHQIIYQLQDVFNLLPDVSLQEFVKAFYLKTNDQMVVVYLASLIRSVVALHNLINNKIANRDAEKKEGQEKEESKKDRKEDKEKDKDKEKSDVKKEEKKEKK

[4] = molecular target: DUBs and other proteins in HEK293 cells (Homo sapiens, UniProt Q96FW1); conditions: replicates A-C
DUBs and other proteins in HEK293 cells (Homo sapiens, UniProt Q96FW1), sequence (Q96FW1 whole entry): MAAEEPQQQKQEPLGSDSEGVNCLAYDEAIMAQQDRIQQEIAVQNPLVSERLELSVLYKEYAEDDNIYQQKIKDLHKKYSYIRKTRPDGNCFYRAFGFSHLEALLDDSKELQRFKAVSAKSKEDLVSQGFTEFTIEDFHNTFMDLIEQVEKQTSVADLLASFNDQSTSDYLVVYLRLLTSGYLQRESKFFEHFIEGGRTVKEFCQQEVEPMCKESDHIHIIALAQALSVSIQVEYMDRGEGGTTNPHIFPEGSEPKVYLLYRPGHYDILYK

[5] = molecular target: DUBs and other proteins in HEK293 cells (Homo sapiens, UniProt Q6P2Q9); conditions: replicates A-C
[6] = molecular target: DUBs and other proteins in HEK293 cells (Homo sapiens, UniProt O00487); conditions: replicates A-C
DUBs and other proteins in HEK293 cells (Homo sapiens, UniProt O00487), sequence (O00487 whole entry): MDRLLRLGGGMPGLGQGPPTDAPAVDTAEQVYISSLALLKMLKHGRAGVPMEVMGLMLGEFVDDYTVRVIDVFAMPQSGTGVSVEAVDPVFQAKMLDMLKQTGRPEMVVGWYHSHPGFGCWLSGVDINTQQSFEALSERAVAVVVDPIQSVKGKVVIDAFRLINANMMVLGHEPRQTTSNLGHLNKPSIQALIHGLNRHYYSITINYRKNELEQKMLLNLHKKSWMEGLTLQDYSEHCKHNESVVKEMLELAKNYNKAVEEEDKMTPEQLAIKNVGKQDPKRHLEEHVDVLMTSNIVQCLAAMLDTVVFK

[7] = 20 nM ABP 2 alone, DMSO substract (FC)

**Q.** With `C#Cc1cnc2[nH]cc(-c3cccc4c3CCN4C(=O)[C@@H]3CCCN3C#N)c2c1` [Compound 2] as the compound, how does the “Log2 reporter intensity values, COPS6” value ([1]; All values) read?
**A.** 0.06809 and 0.08942 and 0.01065

**Q.** What about the “Log2 reporter intensity values, COPS6” value ([1]; DMSO subtracted) of the same compound?
**A.** 0.05567 and 0.07701 and -0.001766

**Q.** What about the “Log2 reporter intensity values: COPS6” value ([1]; 20 nM ABP 2 alone, DMSO substract (FC), replicates A-C) of the same compound?
**A.** 1.039 and 1.055 and 0.9988

**Q.** And the “Log2 reporter intensity values” ([1]; COPS6, 20 nM ABP 2, DMSO subtracted, replicates A-C)?
**A.** 0.05567 and 0.07701 and -0.001766 and 0.03923 and 0.05472 and -0.001335

**Q.** And the “Log2 t-test Difference” value ([1]; COPS6, ABP 2 - 20 nM)?
**A.** 0.04364

**Q.** What about the “Log2 reporter intensity values: USP15” value [2, 7] of the same compound?
**A.** 1.045 and 1.025 and 1.159

**Q.** What about the “Log2 reporter intensity values” ([2]; USP15, 20 nM ABP 2, DMSO subtracted) of the same compound?
**A.** 0.06335 and 0.03549 and 0.2127 and 0.04463 and 0.02465 and 0.1586

**Q.** What about the “Log2 reporter intensity values: PSMD7” value [3, 7] of the same compound?
**A.** 0.8915

**Q.** What about the “Log2 reporter intensity values” ([3]; PSMD7, 20 nM ABP 2, DMSO subtracted) of the same compound?
**A.** 0.1122 and -0.1657 and 0.02 and 0.07832

**Q.** And the “Log2 reporter intensity values: OTUB1” value [4, 7]?
**A.** 1.065 and 1.087 and 1.08

**Q.** What about the “Log2 reporter intensity values” ([4]; OTUB1, 20 nM ABP 2, DMSO subtracted) of the same compound?
**A.** 0.1206 and 0.06511 and 0.07959

**Q.** And the “Log2 reporter intensity values: PRPF8” value [5, 7]?
**A.** 0.8057 and 0.8767 and 0.8316

**Q.** And the “Log2 reporter intensity values” ([5]; PRPF8, 20 nM ABP 2, DMSO subtracted)?
**A.** -0.3117 and -0.1898 and -0.2661 and -0.1946 and -0.1687

**Q.** And the “Log2 reporter intensity values: PSMD14” value [6, 7]?
**A.** 0.9494 and 1.033 and 1.015

**Q.** And the “Log2 reporter intensity values” ([6]; PSMD14, 20 nM ABP 2, DMSO subtracted)?
**A.** -0.07484 and 0.0464 and 0.02103 and -0.05321 and 0.03002 and 0.01203
